Drawing on patent US5008267A, “Pyrimidinedione compounds, method of producing the same and antiarrythmic agents containing the same” (Mitsui Toatsu Chemicals, Incorporated, priority 1988, dated 1991), this text covers change in vivo and activation for 19 molecules.

Assay [1] has as its system ventricular muscle refractory period. Put plainly: Influence on ventricular muscle refractory period (ERP). It is filed as in vivo, mongrel dog. The note with it: Canis lupus familiaris, iv, i.v., (W-Y)/Y×100, read-out: ERP (%; extensibility of refractory period). On the procedure: (2) Influence on ventricular muscle refractory period Refractory periods were measured in the following manner before and after each of the compounds and d-sotalol shown in Table 2 was separately administered to a vein or a duodenum, and ERP (%; extensibility of refractory period) was calculated from the measured values: ERP (%)=(W-Y)/Y×100 W: Refractory period after administration Y: Refractory period before administration To a mongrel adult dog, 30 mg/kg of pentobarbital was administered intravenously, and after being anesthetized, a pair of silver-silver chloride electrodes separated by 3 mm was sewn on an opened right ventricule, and electrical stimulation was given at an interval of 400 msec at a duration time of 4 msec under a current twice as much as the threshold. Afterward, a small amount of alcohol was injected into a sinus artery in order to extinguish a pacemaker activity, and the ventricular refractory period (ERP) was measured under ventricule pacing. That is, each 1 train comprised 10 stimulations having intervals of 400 msec, and an interval between the trains was usually 400 msec. However, this interval was shortened 10 msec by 10 msec at the time of the refractory period measurement, and an interval between the trains at the time when reaction to the first stimulation of the train disappeared was regarded as the refractory period. In this case, the electrical stimulation was fed in accordance with a program by a heart stimulation device (Diamedical Co., Ltd.; DHM-226-3).

For assay [2], the system named is Purkinje fiber of the right ventricular free wall (myocardial action potential). Kind of assay: Influence on myocardial action potential duration time (APD75), isolated right ventricular free wall, microelectrode in Purkinje fiber. It is filed as cell-based, dog. To be noted: Canis lupus familiaris, 20 min.
Setting [3] is: 1.0 μg/ml, 20 minutes' incubation, (B-A)/A×100, read-out: APD75 (%).
Setting [4] is: 3.0 μg/ml, 20 minutes' incubation, (B-A)/A×100, read-out: APD75 (%).
Setting [5] is: 10.0 μg/ml, 20 minutes' incubation, (B-A)/A×100, read-out: APD75 (%).

Structures can show the parent of a compound that is named as a salt. Where two headings read alike, the source gives them in different places.

In the case of `Cn1c(N2CCN(c3ccc([N+](=O)[O-])cc3)CC2)cc(=O)n(C)c1=O` [Compound 1, 1,3-dimethyl-6-[4-(4-nitrophenyl)piperazin-1-yl]-2,4(1H,3H)-pyrimidinedione], in assay [1], the change in vivo at 0.1 mg/kg came out at 3.6%, the change in vivo at 0.3 mg/kg came out at 3.6% and the change in vivo at 1 mg/kg turned out to be 10.3%.

In turn, `Cn1c(N2CCN(CCc3ccc([N+](=O)[O-])cc3)CC2)cc(=O)n(C)c1=O` [Compound 14, 1,3-dimethyl-6-{4-[2-(4-nitrophenyl)ethyl]piperazin-1-yl}-2,4(1H,3H)-pyrimidinedione hydrochloride] showed an activation at 0.3 µg/mL in assay [2] (0.3 μg/ml, 20 minutes' incubation, (B-A)/A×100) of 18%. In addition, in assay [2] (setting [3]), the activation at 1 µg/mL came to 43%. Moreover, in assay [1], the change in vivo at 0.1 mg/kg was determined as 14% and the change in vivo at 0.3 mg/kg worked out at 33.5%.

Take `Cn1c(NCCNCc2ccc([N+](=O)[O-])cc2)cc(=O)n(C)c1=O` [Compound 15, 1,3-dimethyl-6-[2-(4-nitrobenzylamino)ethylamino]-2,4(1H,3H)-pyrimidinedione oxalate]: the activation at 3 µg/mL in assay [2] (setting [4]) was found to be 6%. The activation at 10 µg/mL in assay [2] (setting [5]) came out at 16%. Also, in assay [1], the change in vivo at 0.1 mg/kg is 6.3%, the change in vivo at 0.3 mg/kg was 12.5%, the change in vivo at 1 mg/kg stood at 12.5% and the change in vivo at 3 mg/kg was 18.8%.

Turning to `Cn1c(NCCNCCc2ccc([N+](=O)[O-])cc2)cc(=O)n(C)c1=O` [Compound 16, 1,3-dimethyl-6-{2-[2-(4-nitrophenyl)ethylamino]ethylamino}-2,4(1H,3H)-pyrimidinedione oxalate], in assay [2] (setting [4]), the activation at 3 µg/mL stood at 22%. Moreover, in assay [1], the change in vivo at 0.1 mg/kg is 6.7%, the change in vivo at 0.3 mg/kg was found to be 13.3% and the change in vivo at 1 mg/kg amounted to 13.3%.

For `CCN(CCNc1cc(=O)n(C)c(=O)n1C)CCc1ccc([N+](=O)[O-])cc1` [Compound 21], in assay [2] (setting [3]), the activation at 1 µg/mL worked out at 13%. In addition, the activation at 3 µg/mL in assay [2] (setting [4]) was determined as 27%. In assay [2] (setting [5]), the activation at 10 µg/mL was 37%. Besides, in assay [1], the change in vivo at 0.1 mg/kg turned out to be 7%, the change in vivo at 0.3 mg/kg came out at 10%, the change in vivo at 1 mg/kg is 14% and the change in vivo at 3 mg/kg amounted to 14%.

In the case of `Cn1c(N2CCN(CCCc3ccc([N+](=O)[O-])cc3)CC2)cc(=O)n(C)c1=O` [Compound 33, 1,3-dimethyl-6-{4-[3-(4-nitrophenyl)propyl]piperazin-1-yl)-2,4(1H,3H)-pyrimidinedione oxalate], in assay [2] (setting [3]), the activation at 1 µg/mL is 17%. For the same molecule, in assay [2] (setting [4]), the activation at 3 µg/mL was determined as 22%. In assay [2] (setting [5]), the activation at 10 µg/mL was 31%. Moreover, in assay [1], the change in vivo at 0.1 mg/kg was determined as 14.3%, the change in vivo at 0.3 mg/kg was 14.3%, the change in vivo at 1 mg/kg came to 17.9% and the change in vivo at 3 mg/kg turned out to be 21.4%.

For the molecule `Cn1c(N2CCN(CCCOc3ccc([N+](=O)[O-])cc3)CC2)cc(=O)n(C)c1=O` [Compound 35, 1,3-dimethyl-6-{4-[3-(4-nitrophenoxy)propyl]piperazin-1-yl}-2,4(1H,3H)-pyrimidinedione hydrochloride], the activation at 1 µg/mL in assay [2] (setting [3]) stood at 17%. Besides, the activation at 3 µg/mL in assay [2] (setting [4]) turned out to be 22%. Besides, in assay [2] (setting [5]), the activation at 10 µg/mL was 30%. Further, in assay [1], the change in vivo at 0.1 mg/kg was 6%, the change in vivo at 0.3 mg/kg was 12%, the change in vivo at 1 mg/kg was 15.8% and the change in vivo at 3 mg/kg was determined as 25.3%.

As to `Cn1c(N2CCN(CCCOc3cccc([N+](=O)[O-])c3)CC2)cc(=O)n(C)c1=O` [Compound 38, 1,3-dimethyl-6-{4-[3-(3-nitrophenoxy)propyl]piperazin-1-yl}-2,4(1H,3H)-pyrimidinedione hydrochloride], the activation at 1 µg/mL in assay [2] (setting [3]) was determined as 15%. In addition, in assay [2] (setting [4]), the activation at 3 µg/mL is 34%. Moreover, in assay [1], the change in vivo at 0.1 mg/kg was found to be 0%, the change in vivo at 0.3 mg/kg is 0%, the change in vivo at 1 mg/kg was 7% and the change in vivo at 3 mg/kg was found to be 14%.

For `Cn1c(N2CCN(CC(=O)c3ccc([N+](=O)[O-])cc3)CC2)cc(=O)n(C)c1=O` [Compound 42, 1,3-dimethyl-6-[4-(4-nitrophenacyl)piperazin-1-yl]-2,4(1H,3H)-pyrimidinedione hydrochloride], the activation at 1 µg/mL in assay [2] (setting [3]) turned out to be 2%. Further, the activation at 3 µg/mL in assay [2] (setting [4]) was determined as 10%. For the same molecule, the activation at 10 µg/mL in assay [2] (setting [5]) worked out at 17%. Further, in assay [1], the change in vivo at 0.1 mg/kg stood at 4.6%, the change in vivo at 0.3 mg/kg was found to be 9.4%, the change in vivo at 1 mg/kg was determined as 11.7% and the change in vivo at 3 mg/kg was 18.4%.

`Cn1c(N2CCN(CC(O)c3ccc([N+](=O)[O-])cc3)CC2)cc(=O)n(C)c1=O` (centres unmarked) [Compound 44, 1,3-dimethyl-6-{4-[2-hydroxy-2-(4-nitrophenyl)ethyl]piperazin-1-yl}-2,4-(1H,3H)-pyrimidinedione hydrochloride]: the activation at 1 µg/mL in assay [2] (setting [3]) is 5%. The activation at 3 µg/mL in assay [2] (setting [4]) is 13%. For the same molecule, the activation at 10 µg/mL in assay [2] (setting [5]) was 21%. Besides, in assay [1], the change in vivo at 0.1 mg/kg came to 0%, the change in vivo at 0.3 mg/kg is 7.7%, the change in vivo at 1 mg/kg worked out at 19.9% and the change in vivo at 3 mg/kg was found to be 27.8%.

As for `Cn1c(N2CCN(CC(=O)Nc3ccc([N+](=O)[O-])cc3)CC2)cc(=O)n(C)c1=O` [Compound 47, 1,3-dimethyl-6-{4-[N-(4-nitrophenyl)carbamoylmethyl]piperazin-1-yl}-2,4(1H,3H)pyrimidinedione oxalate], the activation at 1 µg/mL in assay [2] (setting [3]) is 5%. Also, the activation at 3 µg/mL in assay [2] (setting [4]) was found to be 11%. The activation at 10 µg/mL in assay [2] (setting [5]) amounted to 16%.

Take `Cn1c(N2CCN(CCCNc3ccc([N+](=O)[O-])cc3)CC2)cc(=O)n(C)c1=O` [Compound 58]: the activation at 1 µg/mL in assay [2] (setting [3]) was found to be 10%. In assay [2] (setting [4]), the activation at 3 µg/mL was determined as 18%. For the same molecule, the activation at 10 µg/mL in assay [2] (setting [5]) was found to be 28%.

With `Cn1c(NCCNC2CCN(c3ccc([N+](=O)[O-])cc3)CC2)cc(=O)n(C)c1=O` [Compound 61, 1,3-dimethyl-6-{2-[[1-(4-nitrophenyl)piperidin-4-yl]amino]ethylamino}-2,4(1H,3H)-pyrimidinedione oxalate], in assay [1], the change in vivo at 0.1 mg/kg amounted to 8.3%, the change in vivo at 0.3 mg/kg is 8.3% and the change in vivo at 1 mg/kg is 8.3%.

For the molecule `CCN(CCCNc1ccc([N+](=O)[O-])cc1)CCNc1cc(=O)n(C)c(=O)n1C` [Compound 73, 1,3-dimethyl-6-{2-[N-ethyl-3-(4-nitroanilino)propylamino]ethylamino}-2,4(1H,3H)-pyrimidinedione hydrochloride], the activation at 1 µg/mL in assay [2] (setting [3]) is 2%. In assay [2] (setting [4]), the activation at 3 µg/mL came to 12%. Also, in assay [2] (setting [5]), the activation at 10 µg/mL worked out at 18%.

Take `CC(=O)c1ccc(OCCN2CCN(c3cc(=O)n(C)c(=O)n3C)CC2)c([N+](=O)[O-])c1` [Compound 102]: in assay [2] (setting [3]), the activation at 1 µg/mL stood at 7%. For the same molecule, in assay [2] (setting [4]), the activation at 3 µg/mL was 20%.

For `Cn1c(N2CCN(CCCOc3ccc([N+](=O)[O-])cc3C(=O)c3ccccc3O)CC2)cc(=O)n(C)c1=O` [Compound 104, 1,3-dimethyl-6-{4-<3-[2-(2-hydroxybenzoyl)-4-nitrophenoxy]propyl>piperazin-1-yl}-2,4(1H,3H)-pyrimidinedione oxalate], in assay [2] (setting [4]), the activation at 3 µg/mL came out at 16%. In assay [2] (setting [5]), the activation at 10 µg/mL is 25%.

For `CC(=O)c1cc([N+](=O)[O-])ccc1NCCCN1CCN(c2cc(=O)n(C)c(=O)n2C)CC1` [Compound 120, 1,3-dimethyl-6-{4-[3-(2-acetyl-4-nitroanilino)propyl]piperazin-1-yl}-2,4(1H,3H)-pyrimidinedione oxalate], in assay [2] (setting [3]), the activation at 1 µg/mL was 16%. Besides, the activation at 3 µg/mL in assay [2] (setting [4]) stood at 27%. For the same molecule, in assay [2] (setting [5]), the activation at 10 µg/mL was determined as 29%.

For `COCCN(CCCc1ccc([N+](=O)[O-])cc1)CCNc1cc(=O)n(C)c(=O)n1C` [Compound 171, 1,3-dimethyl-6-{2-[N-(2-methoxyethyl)-3-(4-nitrophenyl)propylamino]ethylamino}-2,4(1H,3H)-pyrimidinedione oxalate], the activation at 1 µg/mL in assay [2] (setting [3]) came out at 19%. Besides, the activation at 3 µg/mL in assay [2] (setting [4]) came out at 23%. The activation at 10 µg/mL in assay [2] (setting [5]) came to 38%.

As to `Cn1c(NCCN(CCO)CCCc2ccc([N+](=O)[O-])cc2)c([N+](=O)[O-])c(=O)n(C)c1=O` [Compound 180, 1,3-dimethyl-6-{2-[N-(2-hydroxethyl)-3-(4-nitrophenyl)propylamino]ethylamino}-5-nitro-2,4(1H,3H)-pyrimidinedione hydrochloride], in assay [2] (read-out: APD75 (%)), the activation at 1 µg/mL turned out to be 11%, the activation at 3 µg/mL is 20% and the activation at 10 µg/mL was 26%.
